Format in all cases: cell-based, human
Common to all, as to details: 100 nmol/L, jetPRIME, 72 h

For data set [1], the system named is pancreatic cancer PANC-1 cells. In words: Apoptosis detection (Annexin V / PI). The procedure: (§1) 1) PANC-1 cells and BXPC-3 cells with a cell density of more than 90% in 10 cm^2 dishes were plated in 12-well plates according to the cell growth rate, and transfected after 12 h, and the groups were divided as follows: • blank control group (4 wells): 100 uL of jetPRIME Buffer per well • negative control group (NC group) and experimental group (3 wells each): 100 uL of jetPRIME Buffer was mixed well with 3 uL of jetPRIME reagent and 5 uL of small RNA for each well and let stand for 15 min, and then was added to each well at a 100 uL system (final concentration 100 nmol/L) • Note: 100 uL of nuclease-free water was added to 2 nmol of small RNA dry powder for dissolution at a storage concentration of 20 umol/L
(§2) The supernatant and cells were collected after 72 h and washed twice with pre-chilled PBS. The 4 tubes of cells in the blank control group were added respectively with: (1) 200 uL of 1× binding buffer; (2) 200 uL of 1× binding buffer and 5 uL of Annexin V stain; (3) 200 uL of 1× binding buffer and 5 uL of PI stain; (4) 200 uL of 1× binding buffer, 5 uL of Annexin V stain and 5 uL of PI stain. 200 uL of 1× binding buffer, 5 uL of Annexin V stain and 5 uL of PI stain were added to each tube of both the NC group and the experimental group. The mixture was mixed well and filtered through 300 mesh filters. The live cell population and the position of quadrant gate were selected according to the blank control group, and then the apoptosis of the NC group and the experimental group was detected.
as §1, with “mixed” for “mixed well”, “per” for “for each”

Data set [2] has as its system pancreatic cancer BXPC-3 cells. In words: Apoptosis detection (Annexin V / PI). The procedure:
as §1, §2
as §1, with “mixed” for “mixed well”, “per” for “for each”

The subject of data set [3] is pancreatic cancer BXPC-3 cells. In words: Cell migration (Transwell). Here is the method:
(§3) 1) ASPC-1 cells and BXPC-3 cells with a cell density of more than 90% in 10 cm^2 dishes were digested and then resuspended with 1 mL of serum-free medium and counted. 100,000 cells (100 uL) were plated in the upper chamber, and complete medium with 10% FBS was added to the lower chamber of each Transwell chamber. Transfection was performed after 12 h, and the groups (3 wells per group) were divided: • blank control group: 10 uL of jetPRIME Buffer • negative control group (NC group) and experimental group: 10 uL of jetPRIME Buffer was mixed well with 0.5 uL of jetPRIME reagent and 0.5 uL of small RNA and let stand for 15 min, and then was added to each well at a 10 uL system (final concentration 100 nmol/L) • Note: 100 uL of nuclease-free water was added to 2 nmol of small RNA dry powder for dissolution at a storage concentration of 20 umol/L
(§4) After 72 h, the medium in upper and lower chambers was discarded. The cells were fixed with paraformaldehyde at room temperature for 15 min, stained with 0.1% crystal violet at room temperature for 15 min, and rinsed with PBS. The cells in the upper chamber were gently wiped off with cotton swabs, and the chamber was dried. A Leica inverted microscope DMi8 was turned on, the 5× objective lens was selected, the parameters were adjusted and the white balance was performed following the manual. Each chamber was photographed, followed by counting and statistic processing.
as §3, with “divided as follows:” for “divided:”

The test system of data set [4] is pancreatic cancer ASPC-1 cells. The data set can be described thus: Cell migration (Transwell). Here is the method: as §3, §4
as §3, with “divided as follows:” for “divided:”

Data set [5] deals with pancreatic cancer BXPC-3 cells. In words: Cell invasion (Matrigel Transwell). Here is the method: 1) Matrigel basement membrane matrix was thawed on crushed ice one night before and diluted with serum-free medium to a final concentration of 200-300 ug/mL. 100 uL of the diluted Matrigel was added to each upper chamber, let stand at 37° C. for 30 min, and the supernatant was aspirated. ASPC-1 cells and BXPC-3 cells with a cell density of more than 90% in 10 cm^2 dishes were digested and resuspended with 1 mL of serum-free medium and counted. 100,000 cells (100 uL) were plated in the upper chamber, and complete medium with 10% FBS was added to the lower chamber of each chamber. […]
1) Matrigel basement membrane matrix was thawed on crushed ice one night before and diluted with serum-free medium to a final concentration of 200-300 ug/mL. […] BXPC-3 cells with a cell density of more than 90% in 10 cm^2 dishes were digested and resuspended with 1 mL of serum-free medium and counted. […]

On to “MDM-sRNA-163: small RNA derived from Maytenus hookeri, sequence UGACUCUAGUCCGACUUUGUGAAAUGACU (listed as RNA, chemistry not given here)”, for which the apoptosis entry in data set [1] and in data set [2] was “promotes” in each case. The cell migration result in data set [3] and in data set [4] was “inhibits” in each case. Moreover, in data set [5], the cell invasion result is reported as “inhibits”.
In the case of “MDM-sRNA-39: small RNA derived from Maytenus hookeri, sequence GGGAUUGUAGUUCAAUUGGUCAGAGCACC (listed as RNA, chemistry not given here)”, the apoptosis entry in data set [1] and in data set [2] was “promotes” in each case. The cell migration entry in data set [3] and in data set [4] was “inhibits” each time. The cell invasion entry in data set [5] was “inhibits”.

Values taken from patent US20250302862A1, “SMALL RNA DRUG FOR INHIBITING ACTIVITY OF CANCER CELLS” (Institute of Basic Medical Sciences Chinese Academy of …, priority 2022, published 2025).
